Here are results for one compound from ChEMBL document CHEMBL4402613, “Targeting ALK2: An Open Science Approach to Developing Therapeutics for the Treatment of Diffuse Intrinsic Pontine Glioma” (J Med Chem, 2020).

Data set [1] addresses T1, Non-receptor tyrosine-protein kinase TNK1 (Homo sapiens) (UniProt Q13470).
T1 sequence (whole entry): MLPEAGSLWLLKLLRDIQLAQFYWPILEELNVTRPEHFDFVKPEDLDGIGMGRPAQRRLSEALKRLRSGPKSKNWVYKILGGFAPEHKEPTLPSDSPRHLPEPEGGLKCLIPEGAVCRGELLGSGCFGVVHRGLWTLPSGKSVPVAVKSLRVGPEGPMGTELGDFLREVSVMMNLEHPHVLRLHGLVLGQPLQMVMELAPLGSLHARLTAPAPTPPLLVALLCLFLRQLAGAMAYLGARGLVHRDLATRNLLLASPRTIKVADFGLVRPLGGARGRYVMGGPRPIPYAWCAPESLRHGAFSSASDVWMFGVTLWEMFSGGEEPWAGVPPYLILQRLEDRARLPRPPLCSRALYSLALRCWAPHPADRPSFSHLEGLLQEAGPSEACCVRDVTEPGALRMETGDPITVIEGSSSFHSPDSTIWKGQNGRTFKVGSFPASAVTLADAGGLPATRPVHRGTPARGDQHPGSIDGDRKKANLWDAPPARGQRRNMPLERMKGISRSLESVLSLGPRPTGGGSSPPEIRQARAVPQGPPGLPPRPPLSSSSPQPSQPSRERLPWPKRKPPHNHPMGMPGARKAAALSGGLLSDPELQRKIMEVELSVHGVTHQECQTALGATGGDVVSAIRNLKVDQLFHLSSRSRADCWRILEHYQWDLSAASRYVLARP
The data set can be described thus: Inhibition of TNK1 (unknown origin) at 1 uM.

Another data set deals with T2, Cytochrome P450 2B6 (Homo sapiens, UniProt P20813).
T2 sequence (P20813 whole entry): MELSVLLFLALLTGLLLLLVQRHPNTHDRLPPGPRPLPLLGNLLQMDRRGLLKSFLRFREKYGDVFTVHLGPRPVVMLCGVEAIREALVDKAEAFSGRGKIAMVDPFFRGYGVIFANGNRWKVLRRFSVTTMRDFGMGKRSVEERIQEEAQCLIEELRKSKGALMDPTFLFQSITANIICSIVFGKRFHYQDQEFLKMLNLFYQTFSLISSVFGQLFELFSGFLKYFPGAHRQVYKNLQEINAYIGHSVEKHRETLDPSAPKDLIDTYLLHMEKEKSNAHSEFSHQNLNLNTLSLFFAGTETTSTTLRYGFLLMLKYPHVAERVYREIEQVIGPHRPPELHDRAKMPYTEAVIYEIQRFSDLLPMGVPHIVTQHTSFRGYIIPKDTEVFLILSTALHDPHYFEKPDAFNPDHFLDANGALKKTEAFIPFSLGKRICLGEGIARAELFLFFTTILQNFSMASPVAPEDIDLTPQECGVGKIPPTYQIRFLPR

Data set [2] concerns the target Activin receptor type-1-like (Homo sapiens) (UniProt P37023). The data set can be described thus: Inhibition of ALK1 (unknown origin) at 1 uM.
A further data set in a line: in vitro. As to conditions: human, Caco-2.
The next data set deals with T3, TGF-beta receptor type-1 (Homo sapiens, UniProt P36897).
T3 sequence (P36897 whole entry): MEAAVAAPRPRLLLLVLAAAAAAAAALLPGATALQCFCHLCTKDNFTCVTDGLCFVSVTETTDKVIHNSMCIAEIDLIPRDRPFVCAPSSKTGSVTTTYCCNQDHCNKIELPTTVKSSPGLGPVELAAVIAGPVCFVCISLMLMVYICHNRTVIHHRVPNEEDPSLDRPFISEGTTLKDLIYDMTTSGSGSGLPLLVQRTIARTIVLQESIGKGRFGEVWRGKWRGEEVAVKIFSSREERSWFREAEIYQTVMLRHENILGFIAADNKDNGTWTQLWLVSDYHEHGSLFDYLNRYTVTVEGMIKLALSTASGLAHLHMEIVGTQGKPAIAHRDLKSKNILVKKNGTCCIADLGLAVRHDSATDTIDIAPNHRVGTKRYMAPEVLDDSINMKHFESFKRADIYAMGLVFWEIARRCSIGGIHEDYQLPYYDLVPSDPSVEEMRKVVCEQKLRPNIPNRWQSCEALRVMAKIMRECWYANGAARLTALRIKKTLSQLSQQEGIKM
It is filed as single protein.

A word on the IC50: it is the concentration that inhibits the measured activity by half. By Papp A→B is commonly meant the apparent permeability from the apical to the basolateral side of a cell layer. The low end stands for poor permeation, the high end for ready permeation.

SMILES strings stand for the structures. Calls of active or inactive are those of the source. No cut-off for these calls is given here.

Sequence of Activin receptor type-1-like (Homo sapiens) (P37023 whole entry): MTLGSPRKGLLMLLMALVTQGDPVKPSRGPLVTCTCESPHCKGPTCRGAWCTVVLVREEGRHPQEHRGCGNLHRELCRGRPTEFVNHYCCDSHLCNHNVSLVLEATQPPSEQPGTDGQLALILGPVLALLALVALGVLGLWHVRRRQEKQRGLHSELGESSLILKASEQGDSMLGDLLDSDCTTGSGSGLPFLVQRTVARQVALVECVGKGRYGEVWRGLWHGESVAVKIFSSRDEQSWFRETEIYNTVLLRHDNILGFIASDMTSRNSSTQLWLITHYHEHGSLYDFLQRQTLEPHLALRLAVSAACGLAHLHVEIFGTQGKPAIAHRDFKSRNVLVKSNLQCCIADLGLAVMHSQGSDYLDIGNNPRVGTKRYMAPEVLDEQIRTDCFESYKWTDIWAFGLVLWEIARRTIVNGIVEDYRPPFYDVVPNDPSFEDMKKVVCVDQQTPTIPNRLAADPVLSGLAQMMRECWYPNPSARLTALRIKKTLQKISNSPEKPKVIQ
Description for Cytochrome P450 2B6: Inhibition of CYP2B6 in human liver microsomes using bupropion as substrate incubated for 40 mins in presence of NADPH by LC-MS/MS analysis
Description for TGF-beta receptor type-1: Inhibition of human ALK5 using casein as substrate in presence of 10 uM [gamma33P] ATP by radioactive assay
Description for in vitro: Apparent permeability across apical to basolateral membrane in human Caco2 cells at 5 uM incubated for 120 mins in orbital shaker by LC-QTOF/MS analysis

For `COc1cc(-c2cncc(-c3ccc(N4CCN(C)CC4)cc3)c2C)cc(F)c1C(N)=O`, the inhibition result in data set [1] and in data set [2] was “Active” each time. Further, the results for the IC50 at Cytochrome P450 2B6 and against TGF-beta receptor type-1 were > 50000 nM and 1050 nM, respectively. In “in vitro”, this compound returned a Papp A→B at 2 h, 5 µM of 5.5 ×10⁻⁶ cm/s.
